Measurements reported in patent US20230218654A1, “COMPOSITIONS AND METHODS FOR TREATING HYPERGLYCEMIA IN TYPE-2 DIABETES” (The Board of Regents of the university of Oklahoma, priority 2020, published 2023).
“Also recorded” adds a separate entry of the source.

Tests used:
[1] = tested on: primary mouse hepatocytes; assay: Western blot of insulin signaling in primary mouse hepatocytes; type: cell-based; details: 500 nM, 1 h
Protocol: MLN4924 enhances hepatocyte insulin responsiveness by delaying feedback IRS degradation (related to FIG. 18A). Cells were serum starved for 16 h then pre-treated with 500 nM MLN4924 for 1 h followed by 100 nM insulin stimulation in time course. Blots are representative of 2 independent experiments.
AML12 cells were a generous gift from Dr. Yanqiao Zhang (Northeast Ohio Medical University). AML12 cells were cultured in DMEM medium supplemented with a mixture of insulin-transferrin-selenium (#41400-045, ThermoFisher, Waltham, MA). For experiments, cells were cultured in serum free medium overnight before various treatments were initiated. The siGENOME SMARTpool siRNA and siControl were purchased from Dharmacon, Inc. (Lafayette, CO). The siRNA was transfected with Lipofectamine RNAiMAX reagent in a final concentration of 25 nM recommended by the manufacturer. Primary human hepatocytes and primary mouse hepatocytes were obtained from the Cell Isolation Core at the University of Kansas Medical Center. Treatments were initiated on the same day of isolation and completed within 24 hours.

[2] = tested on: INS-1 832/13 rat pancreas β cells; assay: Insulin secretion assay in INS-1 832/13 cells; type: cell-based
Protocol: Insulin secreted into the medium was measured, (c) Total remaining intracellular insulin was measured, (d) The % secreted insulin was the fraction of total medium insulin over the sum of insulin in the medium and cells. Results are from 3 independent experiments and expressed as mean ± SEM. Two-way ANOVA and Tukey post hoc test were used to calculate the p values.
INS-1 832/13 rat insulinoma cell line was purchased from Sigma-Aldrich (St. Louis, MO). Cells were cultured in 24-well plate in RPMI-1640 growth medium until 100% confluent. Cells were then treated with vehicle (DMSO) or 500 nM MLN4924 for 5 hrs. Cells were then incubated with 0.5 ml secretion assay buffer (SAB, 114 mM NaCl, 4.7 mM KCl, 1.2 mM KH2PO4, 1.16 mM MgSO4, 20 mM HEPES pH 7.2, 25.5 mM NaHCO3, 2.5 mM CaCl2, and 0.2% BSA) containing 2.5 mM glucose and either vehicle or 500 nM MLN4924 for 1 hr. This step was repeated once. Next, SAB containing 12 mM glucose (0.5 ml) was added to cells to stimulate insulin secretion for 1 hr. The SAB was then collected and cells were lysed in 0.2 ml 1X RIPA buffer. Insulin concentration in SAB and cell lysates was measured with an ELISA assay kit.

[3] = tested on: male mice fed WD for 6 weeks; assay: Insulin tolerance test (ITT); type: in vivo; details: WD 6 weeks, 60 mg/kg SQ twice
Protocol: Male C7BL/6J mice were first fed WD for 6 weeks, and then treated with 60 mg/kg MLN6924 via subcutaneous (SQ) injection at 5 pm on day 1 and 9 am on day 2. Mice were fasted from 9 am to 3 pm on day 2 and insulin tolerance test was performed with 0.5 U/kg insulin i.p. injection (n=5). All results are expressed as mean ± SEM. “*”, p<0.05, vs. Vehicle group at the same time point. Unpaired Student’s t-test was used to calculate the p value.
Mice were treated with 2 doses of MLN4924 as described. After the second injection at 9 am, mice were fasted for 6 h from 9 am to 3 pm. Mice were injected intraperitoneally […] for PTT, and 0.5 U/kg insulin for ITT. Blood glucose was measured with a OneTouch Ultra glucose meter.

## NS(=O)(=O)OC[C@@H]1C[C@@H](n2ccc3c(N[C@H]4CCc5ccccc54)ncnc32)C[C@@H]1O [MLN4924, ((1S,2S,4R)-4-(4-((1S)-2,3-dihydro-1H-inden-1-ylamino)-7H-pyrrolo[2,3-d]pyrimidin-7-yl)-2-hydroxycyclopentyl) methyl sulfamate]
[1]; then 100 nM insulin
  IRS protein abundance: increased IRS protein abundance
  insulin-stimulated AKT activation: increased IRS protein abundance and insulin-stimulated AKT activation
[1]; then 100 nM insulin in time course
  insulin signaling desensitization: significantly delayed cellular insulin desensitization; also recorded: significantly delayed insulin signaling desensitization
[2]; 500 nM MLN4924, 7 hrs
  neddylation inhibition: strong neddylation inhibition
[2]; 500 nM MLN4924, 2.5 mM glucose
  basal insulin secretion: did not affect
[2]; 500 nM MLN4924, 12 mM glucose
  glucose-stimulated insulin secretion: did not affect
[3]; 0.5 U/kg insulin i.p., similar in vehicle group
  plasma glucose in response to insulin after 1 h: ~ 25 mg/dL
[3]; 6 h fast
  basal glucose: lower basal glucose
